This passage reports IC50 results from publication PMC6444227, “Pharmacological Evaluation of Secondary Metabolites and Their Simultaneous Determination in the Arabian Medicinal Plant Plicosepalus curviflorus Using HPTLC Validated Method” (Journal of Analytical Methods in Chemistry, 2019).

Molecules are shown by their SMILES. ≈ marks a conversion by molar mass, not a printed value.

Holding throughout (assay): Cytotoxicity assay (Borenfreund method, 48 h)
Common to all, as to format: cell-based

The subject of one assay is SK-OV-3. The following applies: Homo sapiens, NA = no cytotoxic activity upto 100 µg/mL, read-out: Cancer cells IC50, SK-OV-3. How it is done:
(§1) Four human cancer cell lines (SK-OV-3, SK-MEL, BT-549 and KB) and two noncancerous kidney cell lines (VERO and LLC-PK1) were measured in the in vitro cytotoxic study. Test samples were added on the cell lines with variable concentrations, followed by 48 h incubation. According to the Borenfreund method, the cell viability was determined at the end of incubation, using doxorubicin as a positive control.

The subject of a further assay is VERO. Particulars: Chlorocebus sabaeus, NA = no cytotoxic activity upto 100 µg/mL, read-out: Noncancer cells IC50, VERO. How it is done: as §1
Another assay deals with KB. Particulars: Homo sapiens, NA = no cytotoxic activity upto 100 µg/mL, read-out: Cancer cells IC50, KB. How it is done:
as §1

A further assay deals with SK-MEL. Particulars: Homo sapiens, NA = no cytotoxic activity upto 100 µg/mL, read-out: Cancer cells IC50, SK-MEL. How it is done:
as §1

The next assay deals with LLC-PK11. The following applies: NA = no cytotoxic activity upto 100 µg/mL, read-out: Noncancer cells IC50, LLC-PK11. How it is done:
as §1

The test system of another assay is BT-549. The following applies: Homo sapiens, NA = no cytotoxic activity upto 100 µg/mL, read-out: Cancer cells IC50, BT-549. How it is done:
as §1

The term IC50 denotes the point on the concentration scale where inhibition reaches its midpoint. Take `COc1cccc2c1C(=O)c1c(O)c3c(c(O)c1C2=O)C[C@@](O)(C(=O)CO)C[C@@H]3O[C@H]1C[C@H](N)[C@H](O)[C@H](C)O1` [Doxorubicin]: the IC50 with SK-OV-3 was 0.8 µg/mL (≈ 1.47 µM); in the assay with VERO, over 5 µg/mL; in the assay with KB it was 1.85 µg/mL (≈ 3.4 µM); in the assay on SK-MEL, 1.23 µg/mL (≈ 2.26 µM); in the assay with LLC-PK11, 0.85 µg/mL (≈ 1.56 µM); in the assay with BT-549 it was 1.93 µg/mL (≈ 3.55 µM).
